Values joined by “and” are separate entries in the source; they are usually repeats but may differ in a detail not shown here. Equal values may be shown once. “Also recorded” adds a separate entry of the source.
How the values were obtained:
[1] = Body weight of the mice, carboplatin combination study; assay type: in vivo; settings: for Individual body weight of the mice: one value per mouse
Text: Moreover, to identify whether the treatment has a toxic effect, the weight of the mice was monitored individually once a week.

[2] = tested on: Cov434-AMHRII Asc1a5 (cell line of human ovarian cancer transfected with cDNA AMHRII); assay: Anti-tumour activity of 3C23K alone or with carboplatin in Cov434-AMHRII Asc1a5 xenograft (tumour volume, T/C ratio, statistical analysis); assay type: in vivo, female Swiss nude mouse; settings: for Anti-tumour activity (in words): carboplatin study, comparator as stated in the sentence
Procedure: The 3C23K antibody was evaluated according to the following scheme: 2 times per week for 6 weeks, for a total of 12 injections at about 10 mg/kg/injection, said administration regimen being designated below as “Q3-4D12”. Another group of mice was treated with an irrelevant antibody LFB-R565, administered at about 10 mg/kg/injection, according to the regimen Q3-4D12.
Carboplatin was evaluated, at a sub-optimum dose, i.e. about 60 mg/kg/injection, according to the following scheme: once a week, for 4 weeks, said administration regimen being designated below as “Q7D4”.
Carboplatin was also evaluated in combination with the 3C23K antibody or with the irrelevant antibody LFB-R565. Carboplatin was administered at about 60 mg/kg/injection according to the Q7D4 regimen and the 3C23K antibody or the irrelevant antibody LFB-R565 at about 10 mg/kg/injection according to the regimen Q3-4D12.
The mice were randomized on D11, when the volume of the tumours was between 50 and 158 mm^3, and the treatments began on D13 (9 mice per group).
The tumours were usually measured twice weekly.
The curves of the individual volume of the tumours were plotted.
In one experiment with 9 mice per group, the curves and analyses were therefore stopped when fewer than 8 values per group had been obtained (8 mice alive).
A Kruskal-Wallis test was also carried out.

[3] = tested on: Cov434-AMHRII Asc1a5 tumour cells;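 further: control mice received NaCl solution, survival endpoint was euthanasia once tumour volume hit 2000 mm^3 or on ethical grounds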
Text: A solution of NaCl was used as the control.
(§1) The animals were sacrificed when the tumour volumes reached 2000 mm^3 or for ethical reasons. The curves of mean values and median values as well as the statistical analyses were stopped when 20% of the mice in the group were dead.

[4] = tested on: Cov434-AMHRII Asc1a5 tumour cells (a cell line of human ovarian cancer); assay: Anti-tumour activity of 3C23K alone or with paclitaxel in Cov434-AMHRII Asc1a5 xenograft (tumour volume, T/C ratio, statistical analysis); settings: for Kruskal-Wallis Test: contrast vs control; for Individual tumour volume: individual mice;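 on all read-outs here: subcutaneous Cov434-AMHRII Asc1a5 xenografts in female Swiss nude mice, tumour volume from length×width×height/2 in mm^3, randomized D13, dosing from D14, 8 mice per group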
Procedure: Female Swiss nude mice (Harlan Laboratories) were injected subcutaneously (s.c.) with 7.10^6 cells of Cov434-AMHRII Asc1a5 (cell line of human ovarian cancer transfected with cDNA AMHRII) in Matrigel (1:1 ratio) under a volume of 150 μL on day 0 (D0).
The mice were randomized on D13, when the volume of the tumours was between 58 and 150 mm^3, and the treatments began on D14 (8 mice per group).
The tumours were usually measured twice weekly. Tumour volume (TV) was calculated using the following formula, in which the length corresponds to the largest of the tumour diameters, the width corresponds to the smallest of the tumour diameters and the tumour height: TV (mm^3)=(length×width×height)/2.
In addition, for each group, curves of tumour growth were plotted using the calculated mean tumour volumes or the median tumour volumes.
as §1
In one experiment with 8 mice per group, the curves and analyses were stopped when fewer than 7 values per group had been obtained (7 mice alive).
The statistical differences between the different groups were analysed by ANOVA comparison using the Statgraphics centurion XV software.
The ANOVA table breaks down the variance into two components: an inter-group component and an intra-group component. The ratio F is the ratio of the inter-group estimate to the intra-group estimate. When the P value of test F is greater than or equal to 0.05, there is no statistically significant difference between the mean values of the two groups, with a confidence level of 95%. P values less than 0.05 indicate a significant difference between the mean values of the two groups with a confidence level of 95%.
A Kruskal-Wallis test was also carried out. When the P value is greater than or equal to 0.05, there is no statistically significant difference between the median of the two groups, with a confidence level of 95%. P values less than 0.05 indicate a significant difference between the medians of the two groups with a confidence level of 95%.
The treatment is initiated on day 14 after injection.

[5] = D11, randomization, before treatment
[6] = Day 13, randomization, before treatment

N.N.O=C([O-])C1(C(=O)[O-])CCC1.[Pt+2] [carboplatin, reference compound]
Individual body weight of the mice ([1]; D11 (Sep. 19, 2011)): 22.3 (2×) and 25.8 and 23.0 and 27.1 and 23.3 and 24.5 and 22.7 and 20.4
Individual body weight of the mice ([1]; D18 (Sep. 26, 2011), in g (unit assumed)): 22.2 and 24.6 and 22.6 and 26.1 and 24.4 and 25.4 and 23.6 and 20.3 and 22.0
Individual body weight of the mice ([1]; D25 (Oct. 3, 2011)): 27.6 and 28.3 and 25.6 (2×) and 32.7 and 27.0 and 29.4 and 24.2 and 26.0
Individual body weight of the mice ([1]; D32 (Oct. 10, 2011)): 23.7 and 24.5 and 23.6 (2×) and 28.0 and 23.1 (2×) and 21.1 and 20.2
Individual body weight of the mice ([1]; D39 (Oct. 17, 2011), in g (unit assumed)): 24.3 and 23.9 and 25.1 and 27.2 and 25.4 and 22.4 and 20.0 and 21.0 and 23.3
Individual body weight of the mice ([1]; D46 (Oct. 24, 2011)): 25.4 and 25.7 (2×) and 26.4 and 21.7 and 21.0 and 25.0
Mean body weight of the mice ([1]; Day 11 (before treatment)): 23.5 g
Mean body weight of the mice ([1]; Day 18): 23.5 g
Mean body weight of the mice ([1]; Day 25): 27.4 g
Mean body weight of the mice ([1]; Day 32): 23.4 g
Mean body weight of the mice ([1]; Day 39): 23.6 g
Effect on body weight / toxic effect (in words) ([1]; carboplatin study): not regarded as a toxic effect
Decrease in body weight ([1]; on D32 in comparison with D25, after the third injection of carboplatin): about 15%
Individual tumour volume [2, 5]: 53 mm^3 and 142 mm^3 and 61 mm^3 and 102 mm^3 and 90 mm^3 and 72 mm^3 and 81 mm^3 and 70 mm^3 and 114 mm^3
Mean tumour volume [2, 5]: 87 mm^3
Median tumour volume [2, 5]: 81 mm^3
Individual tumour volume ([2]; D14): 104 mm^3 and 210 mm^3 (2×) and 162 mm^3 and 126 mm^3 and 123 mm^3 and 75 mm^3 and 134 mm^3 and 168 mm^3
Mean tumour volume ([2]; D14): 146 mm^3
Median tumour volume ([2]; D14): 134 mm^3
Individual tumour volume ([2]; D18): 98 mm^3 and 173 mm^3 and 112 mm^3 (2×) and 336 mm^3 and 248 mm^3 and 140 mm^3 and 90 mm^3 (2×)
Mean tumour volume ([2]; D18): 155 mm^3
Median tumour volume ([2]; D18): 112 mm^3
Individual tumour volume ([2]; D22): 378 mm^3 and 126 mm^3 and 360 mm^3 and 324 mm^3 and 363 mm^3 and 270 mm^3 and 156 mm^3 and 198 mm^3 and 168 mm^3
Mean tumour volume ([2]; D22): 260 mm^3
Median tumour volume ([2]; D22): 270 mm^3
Individual tumour volume ([2]; D25): 140 mm^3 and 240 mm^3 and 270 mm^3 and 616 mm^3 and 152 mm^3 and 358 mm^3 and 98 mm^3 and 243 mm^3 and 210 mm^3
Mean tumour volume ([2]; D25): 258 mm^3
Median tumour volume ([2]; D25): 240 mm^3
Individual tumour volume ([2]; D29): 270 mm^3 and 200 mm^3 and 360 mm^3 (2×) and 768 mm^3 and 363 mm^3 and 168 mm^3 and 420 mm^3
Mean tumour volume ([2]; D29): 344 mm^3
Median tumour volume ([2]; D29): 360 mm^3
Individual tumour volume ([2]; D32): 351 mm^3 and 243 mm^3 and 578 mm^3 and 864 mm^3 and 653 mm^3 and 504 mm^3 and 220 mm^3 and 462 mm^3
Mean tumour volume ([2]; D32): 461 mm^3
Median tumour volume ([2]; D32): 462 mm^3
Individual tumour volume ([2]; D36): 630 mm^3 and 424 mm^3 and 1148 mm^3 and 1610 mm^3 and 893 mm^3 and 462 mm^3 and 308 mm^3 and 774 mm^3
Mean tumour volume ([2]; D36): 760 mm^3
Median tumour volume ([2]; D36): 630 mm^3
Individual tumour volume ([2]; D39): 660 mm^3 and 484 mm^3 and 1134 mm^3 and 1495 mm^3 and 1488 mm^3 and 447 mm^3 and 347 mm^3 and 910 mm^3 and 423 mm^3
Mean tumour volume ([2]; D39): 821 mm^3
Median tumour volume ([2]; D39): 660 mm^3
Individual tumour volume ([2]; D43): 864 mm^3 and 592 mm^3 and 1881 mm^3 and 2112 mm^3 and 2038 mm^3 and 882 mm^3 and 438 mm^3 and 1105 mm^3 and 672 mm^3
Mean tumour volume ([2]; D43): 1176 mm^3
Median tumour volume ([2]; D43): 882 mm^3
Individual tumour volume ([2]; D46): 1071 mm^3 and 501 mm^3 and 2205 mm^3 and 810 mm^3 and 378 mm^3 and 1450 mm^3 and 878 mm^3
Individual tumour volume ([2]; D49): 1568 mm^3 and 819 mm^3 and 1125 mm^3 and 480 mm^3 and 1650 mm^3 and 980 mm^3
Anti-tumour activity (in words) [2]: anti-tumour effect; also recorded: exerts anti-tumour activity
Anti-tumour activity (in words) ([2]; listed as Carboplatin): significant anti-tumour activity
T/C ratio ([2]; relative to Control group, D11 (before treatment)): 89%
T/C ratio ([2]; relative to Control group, D14): 82%
T/C ratio ([2]; relative to Control group, D18): 52%
T/C ratio ([2]; relative to Control group, D22): 69%
T/C ratio ([2]; relative to Control group, D25): 54%
T/C ratio ([2]; relative to Control group, D29): 56%
T/C ratio ([2]; relative to Control group, D32): 45%
T/C ratio ([2]; relative to Control group, D36): 40%
T/C ratio ([2]; relative to LFB-R565 group, D11 (before treatment)): 100%
T/C ratio ([2]; relative to LFB-R565 group, D14): 87%
T/C ratio ([2]; relative to LFB-R565 group, D18): 65%
T/C ratio ([2]; relative to LFB-R565 group, D22): 100%
T/C ratio ([2]; relative to LFB-R565 group, D25): 59%
T/C ratio ([2]; relative to LFB-R565 group, D29): 52%
T/C ratio ([2]; relative to LFB-R565 group, D32): 67%
T/C ratio ([2]; relative to LFB-R565 group, D36): 35%

CC(=O)O[C@H]1C(=O)[C@@]2(C)[C@H]([C@H](OC(=O)c3ccccc3)[C@]3(O)C[C@H](OC(=O)[C@H](O)[C@@H](NC(=O)c4ccccc4)c4ccccc4)C(C)=C1C3(C)C)[C@]1(OC(C)=O)CO[C@@H]1C[C@@H]2O [paclitaxel, reference compound]
Survival parameter: logrank test chi-squared ([3]; contrast vs control): 0.04
Survival parameter Mean ([3]; group of 8 mice): 45 days
Survival parameter Median ([3]; group of 8 mice): 45 days
survival parameter ([3]; individual mice, experiment ended on day 83): 34 Days and 41 Days (2×) and 45 Days (2×) and 51 Days (2×) and 55 Days
Statistical analysis based on the survival parameter (in words) ([3]; mouse, in vivo): does not have an activity that is significantly different from that of the control
Kruskal-Wallis Test ([4]; D13): 0.04
Kruskal-Wallis Test ([4]; D20): 0.47
Statistical analysis of tumour volume (in words) ([4]; D20 to D41): does not have an activity that is significantly different from that of the control
Kruskal-Wallis Test ([4]; D24): 0.28
Kruskal-Wallis Test ([4]; D27): 1.10
Kruskal-Wallis Test ([4]; D31): 0.89
Kruskal-Wallis Test ([4]; D35): 0.10
Kruskal-Wallis Test ([4]; D41): 0.20
Mean tumour volume [4, 6]: 97 mm^3
Median tumour volume [4, 6]: 90 mm^3
Individual tumour volume ([4]; Day 13): 126 mm3 and 117 mm3 and 98 mm3 and 83 mm3 (2×) and 66 mm3 and 144 mm3 and 58 mm3
Mean tumour volume ([4]; Day 20): 226 mm^3
Median tumour volume ([4]; Day 20): 228 mm^3
Individual tumour volume ([4]; Day 20): 424 mm3 and 243 mm3 and 240 mm3 and 280 mm3 and 170 mm3 and 126 mm3 and 217 mm3 and 105 mm3
Mean tumour volume ([4]; Day 24): 313 mm^3
Median tumour volume ([4]; Day 24): 270 mm^3
Individual tumour volume ([4]; Day 24): 756 mm3 and 257 mm3 and 356 mm3 and 284 mm3 and 380 mm3 and 180 mm3 (2×) and 110 mm3
Median tumour volume ([4]; Day 27): 336 mm^3
Individual tumour volume ([4]; Day 27): 896 mm3 and 325 mm3 and 386 mm3 and 255 mm3 and 560 mm3 and 347 mm3 and 270 mm3 and 198 mm3
Mean tumour volume ([4]; Day 31): 589 mm^3
Median tumour volume ([4]; Day 31): 415 mm^3
Individual tumour volume ([4]; Day 31): 1530 mm3 and 420 mm3 and 673 mm3 and 410 mm3 (2×) and 720 mm3 and 358 mm3 and 192 mm3
Mean tumour volume ([4]; Day 35): 1176 mm^3
Median tumour volume ([4]; Day 35): 986 mm^3
Individual tumour volume ([4]; Day 35): 2706 mm3 and 699 mm3 and 1200 mm3 and 1008 mm3 and 1653 mm3 and 965 mm3 and 823 mm3 and 351 mm3
Mean tumour volume ([4]; Day 41): 1390 mm^3
Median tumour volume ([4]; Day 41): 1309 mm^3
Individual tumour volume ([4]; Day 41): 1064 mm3 and 2380 mm3 and 1309 mm3 and 1389 mm3 and 2269 mm3 and 884 mm3 and 437 mm3
Individual tumour volume ([4]; Day 45): 1632 mm3 and 2040 mm3 and 2112 mm3 and 1197 mm3 and 798 mm3
Individual tumour volume ([4]; Day 48): 1536 mm3 and 1323 mm3 and 1232 mm3
Individual tumour volume ([4]; Day 51): 2166 mm3 and 2112 mm3 and 1348 mm3
Individual tumour volume ([4]; Day 55): 2132 mm3
Anti-tumour activity (in words) ([4]; paclitaxel study): modest inhibition of tumour growth
